{
  "source": "paper PMC4669759",
  "about": "(Cell Death & Disease, 2015)",
  "key": {"[1]": {"biological_target": "T1, BCL-2–BIM interactions (Homo sapiens, UniProt P10415)", "T1 construct": "expressed in transfected cells; host or cells: HeLa cells stably expressing a GAL4-luciferase reporter", "T1 sequence (P10415 whole entry, the tested form may be a part)": "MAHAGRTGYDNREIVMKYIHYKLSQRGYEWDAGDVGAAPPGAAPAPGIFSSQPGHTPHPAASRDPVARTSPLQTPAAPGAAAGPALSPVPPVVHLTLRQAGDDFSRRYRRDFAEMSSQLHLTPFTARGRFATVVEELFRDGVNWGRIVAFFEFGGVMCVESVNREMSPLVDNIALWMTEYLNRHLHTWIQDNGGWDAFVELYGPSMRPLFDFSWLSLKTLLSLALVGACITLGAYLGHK", "test": "Mammalian two-hybrid assay, BCL-2–BIM, HeLa cells", "format": "cell-based", "conditions": "24 h, luciferase two-hybrid", "procedure": "(a) H929 cells were treated with increasing concentrations of A-1210477 for 4 h. […] All data represent the mean of triplicate experiments, with error bars indicating the S.D. (b) Quantitative measurement of protein–protein interactions using a luciferase-based mammalian two-hybrid assay. […] All data represent the means of triplicate experiments, with error bars indicating the S.Ds.\nHeLa cells stably expressing a GAL4-luciferase reporter were seeded into 10 cm dishes at 5 × 10^5 cells per plate. In all, 24 μg of a plasmid expressing both the ‘bait' and ‘prey' fusion proteins (GAL4DBD-BIM and VP16AD-BCL-2, GAL4DBD-BCL-XL and VP16AD- BCL-XS, or GAL4DBD-MCL-1 and VP16AD-NOXA, respectively) were mixed with 1.5 ml OptiMEM (Invitrogen). Separately, 24 μl Lipofectamine 2000 (Invitrogen) were mixed with 1.5 ml OptiMEM. Both solutions were incubated for 5 min (RT) and then mixed together for 20 min. Three milliliters of the mixture was added to cells in 12 ml culture medium lacking antibiotics, incubated at 37 °C for 24 h, and then transferred to 96-well plates at 20 000 cells per well. Compounds were added in half-log dilutions, starting from 1 μM and ending at 0.0001 μM for 24 h, and luciferase activity was assessed using ONE-Glo reagent (Promega). All data were plotted as the percentage of complex remaining relative to untreated controls."}, "[2]": {"biological_target": "BCL-2 (Homo sapiens, UniProt P10415)", "sequence (P10415 whole entry)": "as the sequence (P10415 whole entry, the tested form may be a part) above", "test": "TR-FRET binding affinity assay, BCL-2", "procedure": "TR-FRET-binding affinity assays were performed for BCL-2, BCL-XL, and MCL-1 in 4.52 mM monobasic potassium phosphate, 15.48 mM dibasic potassium phosphate, 1 mM sodium EDTA, 0.05% Pluronic F-68 detergent, 50 mM sodium chloride, and 1 mM DTT (pH 7.5) as described previously for BCL-XL.[6] For MCL-1 assays, GST-tagged MCL-1 (1 nM) was mixed with 100 nM f-Bak, 1 nM Tb-labeled anti-GST antibody, and compound at room temperature (RT) for 60 min. Fluorescence was measured on an Envision plate reader (Perkin-Elmer, Waltham, MA, USA) using a 340/35 nm excitation filter and 520/525 (f-Bak) and 495/510 nm (Tb-labeled anti-GST antibody) emission filters."}, "[3]": {"tested_on": "MCL-1(3B)–BIMS(2A)ΔC complexes", "test": "Live cell redistribution assay, eGFP-MCL-1(3B) and mCherry-BIMS(2A)ΔC, T-REx-293 cells", "format": "cell-based", "description": "To further rule out potential artifacts associated with lysate detergents that can influence interactions between BCL-2 family proteins,[47] we employed a recently described real-time imaging method to assess the effects on BCL-2 family complexes in live cells.[48] Briefly, interacting pairs of BCL-2 family proteins are expressed as fluorescent fusion proteins at stoichiometric levels from a bicistronic expression module integrated into a single site of the genome in T-REx-293 cells. Under basal conditions, both proteins localize primarily to the mitochondria, where the anti-apoptotic proteins (enhanced green fluorescent protein (eGFP)-BCL-2, eGFP-BCL-XL, or eGFP-MCL-1(3B)) sequester their pro-apoptotic counterparts (mCherry-BAD or mCherry-BIMS(2A)ΔC, the latter being a specific binder of MCL-1[48], [49]). Disruption of these complexes can be tracked by measuring the amount of mCherry-labeled BH3-only protein localized specifically to the mitochondria. […]\nFigure 3 A-1210477 inhibits MCL-1-BIM complexes in live cells. […] The decrease in amount of mCherry-BH3 protein localized to the mitochondria was quantified as a function of time as described in the Materials and Methods, normalized to DMSO control, and fitted to a single exponential decay. Each data point represents the mean change in intensity calculated from 10 fields of view, with error bars indicating the S.E.M. (b) T-REx-293 cells stably expressing eGFP-MCL-1(3B) and mCherry-BIMS(2A)ΔC were treated with 50 μM ABT-737 or increasing concentrations (1–25 μM) A-1210477 for 100 min. The decrease in amount of mCherry-BIMS(2A)ΔC localized to the mitochondria was quantified as in panel (a). (c) Representative fluorescence microscopic images of T-REx-293 cells stably expressing eGFP-BCL-2 family and interacting mCherry-BH3-only proteins before and after 300 min of treatment with 10 μM A-1210477 or (d) ABT-737. […]\nExperiments were carried out as detailed previously.[48] […] Therefore, the entire cell was identified with a single intensity threshold applied to the eGFP fluorescence, excluding areas identified as mitochondria. […]"}},
  "data": [
    {"smiles": "Cc1nn(C)c(COc2ccc(N3CCN(S(=O)(=O)N(C)C)CC3)cc2)c1-c1cccc2c(CCCOc3cccc4ccccc34)c(C(=O)O)n(CCN3CCOCC3)c12", "note": "[A-1210477]", "values": [
      {"measurement": "effect on BCL-2–BIM interactions", "setting": "[1]", "value": "no effect"},
      {"measurement": "Ki", "setting": "[2]", "value": 132, "unit": "nM"},
      {"measurement": "redistribution of mCherry-BIMS(2A)ΔC from mitochondria", "setting": "[3]; T-REx-293 cells expressing MCL-1(3B)", "value": "induced dose-dependent redistribution of BIMS(2A)ΔC to the cytosol"},
      {"measurement": "lowest concentration at which BIMS(2A)ΔC redistribution could be observed", "setting": "[3]; T-REx-293 cells, 100 min", "value": 1, "unit": "µM"}
    ]}
  ]
}
